One test has as its target T1, LZK (Homo sapiens, UniProt O43283).
T1 construct: 10 nM LZK, catalytic domain, Carna Biosiences in assay buffer; purchased Carna Biosciences ('Carna Biosiences' [sic])
T1 sequence (O43283 168-409 limits assumed): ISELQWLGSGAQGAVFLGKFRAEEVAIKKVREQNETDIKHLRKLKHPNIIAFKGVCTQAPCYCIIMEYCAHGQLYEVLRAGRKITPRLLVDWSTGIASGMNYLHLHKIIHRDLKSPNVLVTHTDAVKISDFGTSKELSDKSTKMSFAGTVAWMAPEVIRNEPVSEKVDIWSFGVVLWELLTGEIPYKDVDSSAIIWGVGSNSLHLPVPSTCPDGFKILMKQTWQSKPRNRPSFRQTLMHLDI
The experiment in a line: LZK biochemical assay (TR-FRET, MKK7 phosphorylation). The essentials:
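LZK catalytic domain (10 nM) phosphorylates His-MKK7 (15 nM) with 15 µM ATP, all final, for 90 min at RT in HEPES buffer pH 7.5 with MgCl2. Phospho-T275/S277 detected by TR-FRET (Eu anti-phospho donor, XL665 anti-His acceptor) after 16 h at 32 °C in EDTA stop buffer. Inhibition lowers the 665/Eu ratio.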

The target in the next test is T2, DLK (Homo sapiens, UniProt Q12852).
T2 construct: 10 nM DLK, catalytic domain, Carna Biosiences; purchased Carna Biosciences ('Carna Biosiences' [sic])
T2 sequence (Q12852 125-366 limits assumed): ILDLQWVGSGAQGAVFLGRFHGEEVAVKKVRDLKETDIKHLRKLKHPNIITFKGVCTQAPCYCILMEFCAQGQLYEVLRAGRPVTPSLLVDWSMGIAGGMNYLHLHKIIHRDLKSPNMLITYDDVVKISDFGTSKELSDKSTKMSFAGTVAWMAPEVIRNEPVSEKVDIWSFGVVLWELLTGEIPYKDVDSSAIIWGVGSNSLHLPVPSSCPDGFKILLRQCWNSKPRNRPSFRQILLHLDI
The experiment in a line: DLK biochemical assay (TR-FRET, MKK7 phosphorylation). The essentials:
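DLK catalytic domain (10 nM) phosphorylates His-MKK7 (15 nM) at 60 μM ATP for 90 min at RT in pH 7.5 Hepes buffer (final concentrations). Phospho-T275/S277 is detected by TR-FRET (Eu anti-phospho donor, XL665 anti-His acceptor) after 16 h at 37° C (1536 format) or 4° C (384 format).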
In general terms: Time-resolved FRET reads energy transfer from a long-lived donor to a nearby acceptor.

As to `CC(C)C(c1ccc(C(F)(F)F)nc1)n1cc(-c2cc(-c3ccc(C(F)F)nc3)n3nc(N)nc3c2)cn1` (single isomer, unassigned) [II-71, 5-[6-(Difluoromethyl)pyridin-3-yl]-7-(1-{2-methyl-1-[6-(trifluoromethyl)pyridin-3-yl]propyl}-1H-pyrazol-4-yl)[1,2,4]triazolo[1,5-a]pyridin-2-amine], the IC50 is 74 nM at LZK and 160 nM against DLK.

`CC(C)C(c1ccc(C(F)(F)F)nc1)n1cc(-c2cc(-c3ccc(C(F)F)nc3)n3nc(N)nc3c2)cn1` (single isomer, unassigned) [II-72, 5-[6-(Difluoromethyl)pyridin-3-yl]-7-(1-{2-methyl-1-[6-(trifluoromethyl)pyridin-3-yl]propyl}-1H-pyrazol-4-yl)[1,2,4]triazolo[1,5-a]pyridin-2-amine]: the IC50 at LZK worked out at 17 nM; against DLK it was 16 nM.

Take `CC(C)C(c1ccc(C(F)(F)F)nc1)n1cc(-c2cc(-c3ccc(C4CC(F)(F)C4)nc3)n3nc(N)nc3c2)cn1` (single isomer, unassigned) [II-74, 5-[6-(3,3-Difluorocyclobutyl)pyridin-3-yl]-7-(1-{2-methyl-1-[6-(trifluoromethyl)pyridin-3-yl]propyl}-1H-pyrazol-4-yl)[1,2,4]triazolo[1,5-a]pyridin-2-amine]: the results for the half-inhibitory concentration (IC50) on LZK and against DLK were 170 nM and 510 nM, respectively.

Turning to `CC(C)C(c1ccc(C(F)(F)F)nc1)n1cc(-c2cc(-c3ccc(C4CC(F)(F)C4)nc3)n3nc(N)nc3c2)cn1` (single isomer, unassigned) [II-75, 5-[6-(3,3-Difluorocyclobutyl)pyridin-3-yl]-7-(1-{2-methyl-1-[6-(trifluoromethyl)pyridin-3-yl]propyl}-1H-pyrazol-4-yl)[1,2,4]triazolo[1,5-a]pyridin-2-amine], the IC50 against LZK worked out at 15 nM; against DLK it was 27 nM.

Consider `Nc1nc2cc(-c3cnn(C(c4ccc(C(F)F)nc4)C4CCOCC4)c3)cc(-c3ccc(C(F)(F)F)nc3)n2n1` (single isomer, unassigned) [II-77, 7-(1-{[6-(Difluoromethyl)pyridin-3-yl](tetrahydro-2H-pyran-4-yl)methyl}-1H-pyrazol-4-yl)-5-[6-(trifluoromethyl)pyridin-3-yl][1,2,4]triazolo[1,5-a]pyridin-2-amine], for which the results for the IC50 at LZK and on DLK were 61 nM and 160 nM, respectively.

Regarding `Nc1nc2cc(-c3cnn(C(c4ccc(C(F)F)nc4)C4CCOCC4)c3)cc(-c3ccc(C(F)(F)F)nc3)n2n1` (single isomer, unassigned) [II-78, 7-(1-{[6-(Difluoromethyl)pyridin-3-yl](tetrahydro-2H-pyran-4-yl)methyl}-1H-pyrazol-4-yl)-5-[6-(trifluoromethyl)pyridin-3-yl][1,2,4]triazolo[1,5-a]pyridin-2-amine], the IC50 was found to be 5.3 nM at LZK and 5.2 nM at DLK.

Turning to `CC(C)C(c1ccc(C(F)(F)F)nc1)n1cc(-c2cc(-c3ccc(C4(O)CCC4)nc3)n3nc(N)nc3c2)cn1` (single isomer, unassigned) [II-81, 1-{5-[2-Amino-7-(1-{2-methyl-1-[6-(trifluoromethyl)pyridin-3-yl]propyl}-1H-pyrazol-4-yl)[1,2,4]triazolo[1,5-a]pyridin-5-yl]pyridin-2-yl}cyclobutan-1-ol], the figures for the IC50 at LZK and on DLK were 2.4 nM and 4 nM, respectively.

With `CC(C)C(c1ccc(C(F)(F)F)nc1)n1cc(-c2cc(-c3ccc(C4(O)CCC4)nc3)n3nc(N)nc3c2)cn1` (single isomer, unassigned) [II-82, 1-{5-[2-Amino-7-(1-{2-methyl-1-[6-(trifluoromethyl)pyridin-3-yl]propyl}-1H-pyrazol-4-yl)[1,2,4]triazolo[1,5-a]pyridin-5-yl]pyridin-2-yl}cyclobutan-1-ol], the IC50 at LZK and against DLK was 42 nM throughout.

With `CC[C@@H](c1ccccc1)n1cc(-c2cc(-c3cnn(C(C)C(F)(F)F)c3)c3nc(N)nn3c2)cn1` (single isomer, unassigned) [II-95], the IC50 against LZK turned out to be 40 nM; on DLK, 5.6 nM.

On to `CC[C@@H](c1ccccc1)n1cc(-c2cc(-c3cnn(C(C)C(F)(F)F)c3)c3nc(N)nn3c2)cn1` (single isomer, unassigned) [II-96], for which the IC50 against LZK is 60 nM; at DLK it was 17 nM.

Regarding `CCC(c1ccc(C(F)(F)F)cc1)n1cc(-c2cc(-c3cnn(C)c3)c3nc(N)nn3c2)cn1` (single isomer, unassigned) [II-100, 8-(1-Methyl-1H-pyrazol-4-yl)-6-(1-{1-[4-(trifluoromethyl)phenyl]propyl}-1H-pyrazol-4-yl)[1,2,4]triazolo[1,5-a]pyridin-2-amine], the IC50 on LZK was found to be 500 nM; on DLK, 58 nM.

On to `CCC(c1ccc(C(F)(F)F)cc1)n1cc(-c2cc(-c3cnn(C)c3)c3nc(N)nn3c2)cn1` (single isomer, unassigned) [II-101, 8-(1-Methyl-1H-pyrazol-4-yl)-6-(1-{1-[4-(trifluoromethyl)phenyl]propyl}-1H-pyrazol-4-yl)[1,2,4]triazolo[1,5-a]pyridin-2-amine], for which the results for the IC50 against LZK and on DLK were 110 nM and 6.8 nM, respectively.

As for `CCC(c1ccc(N2CCOCC2)cc1)n1cc(-c2cc(-c3cnn(CC(F)(F)F)c3)c3nc(N)nn3c2)cn1` (single isomer, unassigned) [II-103, 6-(1-{1-[4-(Morpholin-4-yl)phenyl]propyl}-1H-pyrazol-4-yl)-8-[1-(2,2,2-trifluoroethyl)-1H-pyrazol-4-yl][1,2,4]triazolo[1,5-a]pyridin-2-amine], the IC50 at LZK was 160 nM; on DLK, 64 nM.

As for `CCC(c1ccc(N2CCOCC2)cc1)n1cc(-c2cc(-c3cnn(CC(F)(F)F)c3)c3nc(N)nn3c2)cn1` (single isomer, unassigned) [II-104, 6-(1-{1-[4-(Morpholin-4-yl)phenyl]propyl}-1H-pyrazol-4-yl)-8-[1-(2,2,2-trifluoroethyl)-1H-pyrazol-4-yl][1,2,4]triazolo[1,5-a]pyridin-2-amine], the IC50 at LZK came out at 51 nM; at DLK it was 6 nM.

In the case of `CCC(c1ccc(C(F)F)nc1)n1cc(-c2cc(-c3cnn(CC(F)(F)F)c3)c3nc(N)nn3c2)cn1` (single isomer, unassigned) [II-106, 6-(1-{1-[6-(Difluoromethyl)pyridin-3-yl]propyl}-1H-pyrazol-4-yl)-8-[1-(2,2,2-trifluoroethyl)-1H-pyrazol-4-yl][1,2,4]triazolo[1,5-a]pyridin-2-amine], the IC50 on LZK came to 47 nM; against DLK, 40 nM.

In the case of `CCC(c1ccc(C(F)F)nc1)n1cc(-c2cc(-c3cnn(CC(F)(F)F)c3)c3nc(N)nn3c2)cn1` (single isomer, unassigned) [II-107, 6-(1-{1-[6-(Difluoromethyl)pyridin-3-yl]propyl}-1H-pyrazol-4-yl)-8-[1-(2,2,2-trifluoroethyl)-1H-pyrazol-4-yl][1,2,4]triazolo[1,5-a]pyridin-2-amine], the IC50 against LZK is 10 nM; on DLK, 4 nM.

In the case of `CCC(c1ccc(C(F)(F)F)nc1)n1cc(-c2cc(-c3cnn(CC(F)F)c3)c3nc(N)nn3c2)cn1` (single isomer, unassigned) [II-109, 8-[1-(2,2-Difluoroethyl)-1H-pyrazol-4-yl]-6-(1-{1-[6-(trifluoromethyl)pyridin-3-yl]propyl}-1H-pyrazol-4-yl)[1,2,4]triazolo[1,5-a]pyridin-2-amine], the IC50 at LZK was 57 nM; on DLK, 16 nM.

For `CCC(c1ccc(C(F)(F)F)nc1)n1cc(-c2cc(-c3cnn(CC(F)F)c3)c3nc(N)nn3c2)cn1` (single isomer, unassigned) [II-110, 8-[1-(2,2-Difluoroethyl)-1H-pyrazol-4-yl]-6-(1-{1-[6-(trifluoromethyl)pyridin-3-yl]propyl}-1H-pyrazol-4-yl)[1,2,4]triazolo[1,5-a]pyridin-2-amine], the IC50 came to 9.7 nM against LZK and 2.2 nM on DLK.

As for `CC[C@@H](c1ccc(C(F)(F)F)nc1)n1cc(-c2cc(-c3cnn(CC(F)(F)F)c3)c3nc(N)nn3c2)cn1` (single isomer, unassigned) [II-112, 8-[1-(2,2,2-trifluoroethyl)-1H-pyrazol-4-yl]-6-(1-{1-[6-(trifluoromethyl)pyridin-3-yl]propyl}-1H-pyrazol-4-yl)[1,2,4]triazolo[1,5-a]pyridin-2-amine], the values for the IC50 against LZK and at DLK were 17 nM and 4.7 nM, respectively.

On to `CCC(c1ccc(C(F)(F)F)nc1)n1cc(-c2cc(-c3cnn(CC(F)(F)F)c3)c3nc(N)nn3c2)cn1` (single isomer, unassigned) [II-113, 8-[1-(2,2,2-trifluoroethyl)-1H-pyrazol-4-yl]-6-(1-{1-[6-(trifluoromethyl)pyridin-3-yl]propyl}-1H-pyrazol-4-yl)[1,2,4]triazolo[1,5-a]pyridin-2-amine], for which the IC50 against LZK stood at 59 nM; on DLK, 23 nM.

By IC50 is commonly meant the concentration at which inhibition is half-maximal. Low readings indicate greater potency in that assay, high ones weaker potency in that assay.
